From patent publication US5686637A, “Antifungal agent” (Merck & Co., Inc., priority 1995, dated 1997)
In brackets after ≈: the same amount, converted by molar mass.

Experiments:
[1] = test system: Aspergillus fumigatus (MF 4839); assay: microbroth dilution assay (MIC), Aspergillus fumigatus (MF 4839); format: cell-based; conditions: Aspergillus fumigatus (MF 4839); 24 h, 35°-37° C.; read-out: Minimum Inhibitory Concentration (MIC)
Method: (§1) In the microbroth dilution assay, microorganisms were selected by streaking a yeast culture on Sabouraud dextrose agar (SDA) incubating for 24-48 hours at 35°-37° C., thereafter selected 3 to 5 characteristic colonies and transferring to a fresh plate and incubating under similar conditions. From the regrowth, 3 to 5 colonies were selected and suspended in. 10 milliliters of YM broth (Dffco) and incubated for 4 hours at 35°-37° C. shaking at 225 rpm. The 4 hour broth cultures were adjusted optically to 86% transmission resulting in a concentration of 1-5×10^6 cfu/ml which was further diluted 1:100 in YNBD (yeast nitrogen base with 1% dextrose) to obtain a concentration of 1-5×10^4 cfu/ml for use as inocula.
(§2) The test compound, Compound I, was prepared as a stock solution of 128 μg/ml in 20% methanol and 75 μl of said solution delivered to each well in column 1 of a 96-well, U-bottomed microtiter plate. The compounds in column 1 were then serially diluted two-fold to yield concentrations from 32 μg/ml to 0.15 μg/ml. […]
(§3) After recording MICs at 24 hours, the microtiter plates were shaken gently to resuspend the cells. […] For Cryptococus neoformans, SDA plates were inoculated at 48 hours after recording MICs and incubated 48 hours before reading the MFC. […]

[2] = test system: C. parapsilosis (MY 1010); assay: microbroth dilution assay (MIC/MFC), C. parapsilosis (MY 1010); format: cell-based; conditions: Lodderomyces parapsilosis, C. parapsilosis (MY 1010)
Method: as §1
(§4) The test compound, Compound I, was prepared as a stock solution of 128 μg/ml in 20% methanol and 75 μl of said solution delivered to each well in column 1 of a 96-well, U-bottomed microtiter plate. The compounds in column 1 were then serially diluted two-fold to yield concentrations from 32 μg/ml to 0.15 μg/ml.
as §4, with “Amphotericin, the control” for “The test”, “compound,” for “compound, Compound I,”, “512” for “128”, “10% DMSO” for “20% methanol”, “128” for “32”, “0.6” for “0.15”
(§5) The plates containing the diluted compounds were then inoculated with 75 μl/well of the appropriate microorganism and incubated for 48 hours at 35°-37° C. with MIC (minimum inhibitory concentration) determinations carried out after 24 hours of incubation. Growth and sterility controls for each organism and sterility checks for the compounds also were carded out.
(§6) After recording MICs at 24 hours, the microtiter plates were shaken gently to resuspend the cells. A 1.5 μl sample was transferred from each well of the 96-well microtiter plate to a single reservoir inoculum plate containing SDA. The inoculated SDA and corresponding microtiter plates were incubated for 24 hours at 35°-37° C. For Cryptococus neoformans, SDA plates were inoculated at 48 hours after recording MICs and incubated 48 hours before reading the MFC. MFC is the lowest concentration of compound at which either no growth or growth of ≤4 colonies occur.

A. fumigatus (5668) = assay: microbroth dilution assay (MIC), A. fumigatus (5668); format: cell-based; conditions: Aspergillus fumigatus; A. fumigatus (5668); 24 h, 35°-37° C.; read-out: Minimum Inhibitory Concentration (MIC)
Method: as §1, §2, §3

[3] = test system: C. pseudotropicalis (MY 2099); assay: microbroth dilution assay (MIC/MFC), C. pseudotropicalis (MY 2099); format: cell-based, Candida pseudotropicalis; conditions: Kluyveromyces marxianus, C. pseudotropicalis (MY 2099)
Method: as §1, §4
as §4, with “Amphotericin, the control” for “The test”, “compound,” for “compound, Compound I,”, “512” for “128”, “10% DMSO” for “20% methanol”, “128” for “32”, “0.6” for “0.15”
as §5, §6

[4] = test system: C. guillermondii (MY 1019); assay: microbroth dilution assay (MIC/MFC), C. guillermondii (MY 1019); format: cell-based; conditions: C. guillermondii (MY 1019)
Method: as §1, §4
as §4, with “Amphotericin, the control” for “The test”, “compound,” for “compound, Compound I,”, “512” for “128”, “10% DMSO” for “20% methanol”, “128” for “32”, “0.6” for “0.15”
as §5, §6

[5] = test system: Candida albicans (MY 1055); assay: microbroth dilution assay (MIC/MFC), Candida albicans (MY 1055); format: cell-based; conditions: Candida albicans (MY 1055)
Method: as §1, §4
as §4, with “Amphotericin, the control” for “The test”, “compound,” for “compound, Compound I,”, “512” for “128”, “10% DMSO” for “20% methanol”, “128” for “32”, “0.6” for “0.15”
as §5, §6

C. glabrata (MY1381) = assay: microbroth dilution assay (MIC/MFC), C. glabrata (MY1381); format: cell-based; conditions: Nakaseomyces glabratus, C. glabrata (MY1381)
Method: as §1, §4
as §4, with “Amphotericin, the control” for “The test”, “compound,” for “compound, Compound I,”, “512” for “128”, “10% DMSO” for “20% methanol”, “128” for “32”, “0.6” for “0.15”
as §5, §6

[6] = test system: filamentous fungi (AspergiIlus fiavus, Fusarium oxysporum, usalago zeae and the like); assay: agar plate inhibition zone test, filamentous fungi; format: cell-based; conditions: agar plates, methanol solutions, 28° C. or 37° C., 24 hours
Method: Compound I is also useful for inhibiting the growth of filamentous fungi. Such use may be illustrated in the following tests with AspergiIlus fiavus, Fusarium oxysporum, usalago zeae and the like. Inocula for filamentous fungi are prepared by scraping the surface of stock plates maintained on potato dextrose agar with a moistened sterile dacron swab. The spores and mycelia are then suspended in 10 milliliters of sterile potato dextrose broth and adjusted to 70 percent transmission at 660 nm. The samples to be tested for production of antifungal agent are applied directly to the agar plates as methanol solutions. When the sample to be tested is crude broth, it may be centrifuged prior to application. The assay plates are then incubated at either 28° C. or 37° C. for 24 hours. Following incubation, the inhibition zones are measured. Growths are also noted as to appearance.

[7] = test system: Saccharomyces cerevisiae (MY 2140); assay: microbroth dilution assay (MIC/MFC), Saccharomyces cerevisiae (MY 2140); format: cell-based; conditions: Saccharomyces cerevisiae (MY 2140)
Method: as §1, §4
as §4, with “Amphotericin, the control” for “The test”, “compound,” for “compound, Compound I,”, “512” for “128”, “10% DMSO” for “20% methanol”, “128” for “32”, “0.6” for “0.15”
as §5, §6

C. topicalis (MY1012) = assay: microbroth dilution assay (MIC/MFC), C. topicalis (MY1012); format: cell-based; conditions: C. topicalis (MY1012)
Method: as §1, §4
as §4, with “Amphotericin, the control” for “The test”, “compound,” for “compound, Compound I,”, “512” for “128”, “10% DMSO” for “20% methanol”, “128” for “32”, “0.6” for “0.15”
as §5, §6

C. albicans (CLY539) = assay: microbroth dilution assay (MIC/MFC), C. albicans (CLY539); format: cell-based; conditions: Candida albicans, C. albicans (CLY539)
Method: as §1, §4
as §4, with “Amphotericin, the control” for “The test”, “compound,” for “compound, Compound I,”, “512” for “128”, “10% DMSO” for “20% methanol”, “128” for “32”, “0.6” for “0.15”
as §5, §6

C. tropicalis (MY1124) = assay: microbroth dilution assay (MIC/MFC), C. tropicalis (MY1124); format: cell-based; conditions: Candida tropicalis, C. tropicalis (MY1124)
Method: as §1, §4
as §4, with “Amphotericin, the control” for “The test”, “compound,” for “compound, Compound I,”, “512” for “128”, “10% DMSO” for “20% methanol”, “128” for “32”, “0.6” for “0.15”
as §5, §6

panel of fungi = assay: broth microdilution assay against a panel of fungi; format: cell-based; conditions: MIC and MFC
Method: as §1, §2, §3

C. albicans (CA2) = assay: microbroth dilution assay (MIC/MFC), C. albicans (CA2); format: cell-based; conditions: Candida albicans, C. albicans (CA2)
Method: as §1, §4
as §4, with “Amphotericin, the control” for “The test”, “compound,” for “compound, Compound I,”, “512” for “128”, “10% DMSO” for “20% methanol”, “128” for “32”, “0.6” for “0.15”
as §5, §6

[8] = test system: Cryptococcus neoformans (MY 2062); assay: microbroth dilution assay (MIC), Cryptococcus neoformans (MY 2062); format: cell-based; conditions: 24 h; Cryptococcus neoformans (MY 2062); 35°-37° C.; SDA plates inoculated at 48 hours after recording MICs; read-out: Minimum Inhibitory Concentration (MIC)
Method: as §1, §2, §3

[9] = 24 h, 35°-37° C., read-out: Minimum Inhibitory Concentration (MIC)
[10] = no growth or ≤4 colonies on SDA after 24 h, read-out: Minimum Fungicidal Concentration (MFC)

CCCCCCCCCCC(C)C(O)C(C)/C=C(C)/C=C(\C)C(=O)C(C)/C=C(\C)C(=O)OC(CO)C(O)C(O)C(=O)O (stereo not shown) [Compound I]
MIC [1]: > 32 µg/mL
MIC [2, 9]: 2 µg/mL (≈ 3.35 µM)
MFC [2, 10]: 2 µg/mL (≈ 3.35 µM)
MIC (A. fumigatus (5668)): > 32 µg/mL
MIC [3, 9]: 1 µg/mL (≈ 1.68 µM)
MFC [3, 10]: 1 µg/mL (≈ 1.68 µM)
MIC [4, 9]: 4 µg/mL (≈ 6.7 µM)
MFC [4, 10]: 16 µg/mL (≈ 26.8 µM)
MIC [5, 9]: 2 µg/mL (≈ 3.35 µM)
MFC [5, 10]: 2 µg/mL (≈ 3.35 µM)
MIC (C. glabrata (MY1381); [9]): 4 µg/mL (≈ 6.7 µM)
MFC (C. glabrata (MY1381); [10]): 4 µg/mL (≈ 6.7 µM)
inhibition of growth of fungal organisms (inhibition zones) [6]: effectively inhibit growth of the fungal organisms
MIC [7, 9]: 4 µg/mL (≈ 6.7 µM)
MFC [7, 10]: 4 µg/mL (≈ 6.7 µM)
MIC (C. topicalis (MY1012); [9]): 1 µg/mL (≈ 1.68 µM)
MFC (C. topicalis (MY1012); [10]): 0.5 µg/mL (≈ 0.838 µM)
MIC (C. albicans (CLY539); [9]): 2 µg/mL (≈ 3.35 µM)
MFC (C. albicans (CLY539); [10]): 2 µg/mL (≈ 3.35 µM)
MIC (C. tropicalis (MY1124); [9]): 2 µg/mL (≈ 3.35 µM)
MFC (C. tropicalis (MY1124); [10]): 2 µg/mL (≈ 3.35 µM)
effective concentrations against a panel of fungi compared with amphotericin B (panel of fungi): effective at concentrations comparable to an established antifungal agent, amphotericin B
MIC (C. albicans (CA2); [9]): 2 µg/mL (≈ 3.35 µM)
MFC (C. albicans (CA2); [10]): 2 µg/mL (≈ 3.35 µM)
MIC [8]: 2 µg/mL (≈ 3.35 µM)
